Consider two molecules from patent US20240287065A1, “COMPOUND AS CDK KINASE INHIBITOR AND USE THEREOF” (TYK MEDICINES (ZHENGZHOU) , INC., priority 2021, published 2024).

One test concerns HCC1806 cells. Kind of test: Cell proliferation inhibition assay (MTT, 7 days). Type of test: cell-based. Particulars: Homo sapiens, HCC1806, 168 h, HCC1086 [sic], 7 days incubation. Put shortly:
(§1)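 Cells were seeded per well at 3000 (MCF7, T47D), 2500 (OVCAR3) or 2000 (HCC1806) and attached overnight. Nine 3-fold compound dilutions (10000-1.52 nM before addition to cells, 0.1% DMSO medium) were applied for 7 days, refreshed on day 4, in 4 replicates. MTT (3 h) was read at 570 nm, normalised to DMSO and blank, and IC50 fitted by three-parameter curve.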

The test system of the next test is MCF7 cells. The experiment in a line: Cell proliferation inhibition assay (MTT, 7 days). Type of test: cell-based. Particulars: Homo sapiens, 168 h, 7 days incubation. Summed up: as §1
A further test has as its system OVCAR3 cells. Kind of test: Cell proliferation inhibition assay (MTT, 7 days). It is filed as cell-based. Particulars: Homo sapiens, OVCAR-3, 168 h, 7 days incubation. Put shortly: as §1
The subject of the next test is T47D cells. Kind of test: Cell proliferation inhibition assay (MTT, 7 days). Particulars: Homo sapiens, 168 h, 7 days incubation. It is filed as cell-based. Put shortly:
as §1

The next test concerns MCF-7-Palbo-R cells. Kind of test: MCF-7-Palbo-R cell antiproliferative assay (BrdU ELISA). Particulars: for IC50: 72 hours, BrdU; for Bottom(%): bottom of inhibition curve; for Top(%): top of inhibition curve. It is filed as cell-based. The protocol: 1. Experimental Materials • MCF-7/palbo-R • EMEM medium (ATCC, 30-2003); DMEM/F12 medium (Gibco-1 1330-032) • Fetal bovine serum (cellmax-SA21 1.02) • DMSO (SIGMA, D2650) • BrdU ELISA cell proliferation assay kit (Roche, 11647229001) • ELISA (e.g. MD-SpectraMax ID5 or EnVision)
2. Experimental protocol • 1. Cell spreading • 1) Cells were counted, the concentration of cell suspension was adjusted • 2) The MCF7/Palbo-R cell suspension was seeded in 96-well plates at […] volume to make the number of cells per well is 4000-5000; • 3) Blank control group was added with 90 μl of culture medium; • 2. […] A 3-fold serial gradient dilution was performed with 0.1% DMSO medium for a total of 9 concentrations, and the concentrations of the compounds after dilution were as follows: • 10000 nM, 3333.33 nM, 1111.11 nM, 370.34 nM, 123.45 nM, 41.15 nM, 13.72 nM, 4.57 nM, and 1.52 nM. • b) After 72 hours of compound treatment. • 1) A 10 mM of Brdu stock solution was diluted with RPMI medium and added to a 96-well plate at 20 uL/well and shaken at 350 rpm for 10 minutes. • 2) The 96 well plate was placed back into the incubator for 1 or 2 hours. • 3) After the medium was removed from the 96-well plate, 200 ul/well of Fixation/Denaturation solution was added and incubated for 30 minutes at room temperature. • 4) The fixation solution was removed and 100 ul of peroxidase-coupled anti-Brdu antibody solution (antibody dilution prepared at 1:100 dilution) was added, • and incubated at 350 rpm for 1 hour at room temperature. • 6) The 96-well plate was washed three times with 300 ul/well of PBS. • 8) 100ul of peroxidase substrate solution was added and shaken at 350 rpm for about 10-20 minutes at room temperature, • until the DMSO-treated cell control wells turn a medium blue color. If a color is too dark, it will cause the absorbance value to out of the reading range. • 9) The reaction was terminated by the addition of 25 ul of 1 M sulfuric acid. Shake to ensure uniform color. • 10) The absorbance at 450 nm was recorded. • 3. Data analysis • The inhibition rate is calculated using the following equation:
IR (%)=(1−(RLU compound−RLU blank)/(RLU control−RLU blank))*100%.

The next test relates to MV4-11 cells. Kind of test: MV4-11 xenograft tumor model. It is filed as in vivo. Particulars: oral tube feeding twice a day for 15 days, NOD/SCID mice. The procedure: MV-4-11 cells were cultured in IMEM culture medium containing 10% fetal bovine serum. Cells in the exponential growth phase were collected, and the cells were resuspended in PBS to a suitable concentration for subcutaneous tumor inoculation in nude mice.
To establish a xenograft tumor model, 5×10^6 MV4-11 cells were suspended in 0.1 mL of a 1:1 mixture of PBS and Matrigel and injected subcutaneously into the right dorsal side of 6-8-week-old NOD/SCID mice. Tumor growth was observed periodically, and the volume (volume=½×(length×width^2)) was measured with a vernier caliper. When the tumors grew to an average volume of 100˜150 mm^3, the drug was administered to mice (12 days after inoculation) in random groups according to the tumor size and their body weights. […] Among them, the mice in the Vehicle, 10 mg/kg TY-3301, 10 mg/kg C3, and 20 mg/kg C3 groups were administered twice a day by oral tube feeding for 15 days, and the mice in the 20 mg/kg TY-3300 group were administered once a day by oral tube feeding for 15 days. Tumor volume and animal weight were measured twice a week and continued until the end of the experiment. Dosing day was defined as day 0. Measurement time points were day 0, day 3, day 7, day 10, day 14, and day 15. All mice were euthanized by cervical dislocation. At the end of the experiment, tumors were collected and weighed to calculate TGI values (see Table 6).

For orientation: TGI means how far tumour growth fell short of that in controls. A high value points to a stronger effect on the tumour.

Like-named read-outs stand apart in the source and are kept apart here.

As to `C[C@@]1(O)CCC[C@H]1n1c(=O)c(OC(F)F)cc2cnc(NC3CCN(S(C)(=O)=O)CC3)nc21` [Example 3], the IC50 in the test on HCC1806 cells was 50 to 5200 nM; in the test on MCF7 cells, 50 to 5200 nM; with OVCAR3 cells, not above 50 nM; in the test on T47D cells it was 50 to 5200 nM; in the test on MCF-7-Palbo-R cells (read-out: AbsIC50), 36 nM; with MCF-7-Palbo-R cells (read-out: ReIC50), 38 nM. Also, the “Bottom(%)” value in the test on MCF-7-Palbo-R cells turned out to be 6.317%. In addition, the “Top(%)” value in the test with MCF-7-Palbo-R cells is listed as 98.857%. The TGI worked out at 69.5% in the test on MV4-11 cells (10 mg/kg) and 95.3% with MV4-11 cells (20 mg/kg).
As for `C[C@@]1(O)CCC[C@H]1n1c(=O)c(C(F)F)cc2cnc(NC3CCN(S(C)(=O)=O)CC3)nc21` [PF-06873600, reference compound], the IC50 was 50 to 5200 nM in the test with HCC1806 cells; 50 to 5200 nM with MCF7 cells; 50 to 5200 nM in the test on OVCAR3 cells; not above 50 nM with T47D cells; 54 nM in the test with MCF-7-Palbo-R cells (read-out: AbsIC50); 49 nM in the test with MCF-7-Palbo-R cells (read-out: ReIC50). In the test with MCF-7-Palbo-R cells, the “Bottom(%)” value worked out at 7.487%. Moreover, the “Top(%)” value in the test on MCF-7-Palbo-R cells is 98.896%. In the test on MV4-11 cells (10 mg/kg), this molecule yielded a tumour growth inhibition (TGI) of 60.9%.
